According to patent US9783499B2, “Quinoline derivatives and their applications” (Shenyang Pharmaceutical University, priority 2012, dated 2017):
In brackets after ≈: the same amount, converted by molar mass.

Columns and labels:
Assay type in all cases: cell-based
[1] = system: H460 (human lung cancer cell); experiment: In vitro anti-tumor cellular activity (MTT), H460; settings: for H460 IC50: 72 hours; for IC50: Homo sapiens, NCI-H460, 72 hours
Experimental: (§1) After pouring the cell dissociation buffer to the centrifugetube, nutrient solution was added to stop digestion. The centrifugetube were centrifuged for 10 min under 800 r/min, the liquid supernatant was removed, 5 mL culture solution was added, after mixing by pipetting the cell, took 10 μL cell suspension to the cell counting plat, and adjusted the cell concentration to 10^4/well. Among the 96 wells, A1 is empty, 100 μL of cell suspension were added to the other wells. The 96 well plates were incubated in the incubator for 24 h. […] The 96-well plates were placed in an incubator and cultivated for 72 hours. (3) The culture media containing the compounds in the 96-well plates was discarded, and the cells were washed with phosphate buffered solution (PBS) twice. Each well was added with 100 μL MTT (tetrazole) (0.5 mg/mL), and then placed in an incubator to incubate for 4 hours, after which MTT solution was discarded and 100 μL dimethyl sulfoxide was added thereto.

[2] = system: MKN-45 (human gastric carcinoma cell); experiment: In vitro anti-tumor cellular activity (MTT), MKN-45; settings: 72 hours; for IC50: Homo sapiens
Experimental: as §1

[3] = system: MDA-MB-231 (human beast cancer cell); experiment: In vitro anti-tumor cellular activity (MTT), MDA-MB-231; settings: 72 hours; for IC50: Homo sapiens
Experimental: as §1

[4] = system: U87MG (Human malignant glioblastoma cell); experiment: In vitro anti-tumor cellular activity (MTT), U87MG; settings: 72 hours; for IC50: Homo sapiens, U-87 MG
Experimental: as §1

[5] = system: HT-29 (colon cancer cell); experiment: In vitro anti-tumor cellular activity (MTT), HT-29; settings: 72 hours; for IC50: Homo sapiens
Experimental: as §1

[6] = system: SMMC-7721 (hepatoma cell); experiment: In vitro anti-tumor cellular activity (MTT), SMMC-7721; settings: 72 hours; for IC50: Homo sapiens
Experimental: as §1

N.N.[Cl][Pt][Cl] [Cisplatin, reference compound]
H460 IC50 [1]: 0.23 µg/mL | MKN-45 IC50 [2]: 0.68 µg/mL | MDA-MB-231 IC50 [3]: 0.46 µg/mL | U87MG IC50 [4]: 0.19 µg/mL | HT-29 IC50 [5]: 1.0 µg/mL | SMMC-7721 IC50 [6]: 0.90 µg/mL

COc1cc2c(Oc3ccc(NC(=O)N/N=C/c4ccccc4)cc3F)ccnc2cc1OCCCN1CCC(C)CC1 [Example 2, (E)-N^1-(3-fluoro-4-(6-methoxy-7-(3-(4-methylpiperidin-1-yl)propoxy)quinoline-4-yloxy)phenyl)-N^4-(benzaldehyde)semicarbazone]
H460 IC50 [1]: 0.15 µg/mL | MKN-45 IC50 [2]: 0.18 µg/mL | MDA-MB-231 IC50 [3]: 0.12 µg/mL | U87MG IC50 [4]: 0.31 µg/mL | HT-29 IC50 [5]: 0.17 µg/mL | SMMC-7721 IC50 [6]: 0.43 µg/mL

COc1cc2c(Oc3ccc(NC(=O)N/N=C/c4ccccc4)cc3F)ccnc2cc1OCCCN1CCOCC1 [Example 3, (E)-N^1-(3-fluoro-4-(6-methoxy-7-(3-(morpholin-4-yl)propoxy)quinoline-4-yloxy)phenyl)-N^4-(benzaldehyde)semicarbazone]
H460 IC50 [1]: 0.11 µg/mL | MKN-45 IC50 [2]: 0.12 µg/mL | MDA-MB-231 IC50 [3]: 0.13 µg/mL | U87MG IC50 [4]: 0.33 µg/mL | HT-29 IC50 [5]: 0.42 µg/mL | SMMC-7721 IC50 [6]: 2.1 µg/mL

COc1cc2c(Oc3ccc(NC(=O)N/N=C/c4ccccc4)cc3F)ccnc2cc1OCCCN1CCN(C)CC1 [Example 4, (E)-N^1-(3-fluoro-4-(6-methoxy-7-(3-(4-methylpiperazin-1-yl)propoxy)quinoline-4-lyoxy)phenyl)-N^4-(benzaldehyde)semicarbazone]
H460 IC50 [1]: 0.084 µg/mL | MKN-45 IC50 [2]: 0.11 µg/mL | MDA-MB-231 IC50 [3]: 0.066 µg/mL | U87MG IC50 [4]: 0.25 µg/mL | HT-29 IC50 [5]: 0.093 µg/mL | SMMC-7721 IC50 [6]: 0.23 µg/mL

COc1cc2c(Oc3ccc(NC(=O)N/N=C/c4ccccc4)cc3F)ccnc2cc1OCCCN1CCCCC1 [Example 5, (E)-N^1-(3-fluoro-4-(6-methoxy-7-(3-(piperidin-1-yl)propoxy)quinoline-4-yloxy)phenyl)-N^4-(benzaldehyde)semicarbazone]
H460 IC50 [1]: 0.012 µg/mL | MKN-45 IC50 [2]: 0.012 µg/mL | MDA-MB-231 IC50 [3]: 0.010 µg/mL | U87MG IC50 [4]: 0.19 µg/mL | HT-29 IC50 [5]: 0.0088 µg/mL | SMMC-7721 IC50 [6]: 0.16 µg/mL

COc1cccc(/C=N/NC(=O)Nc2ccc(Oc3ccnc4cc(OCCCN5CCC(C)CC5)c(OC)cc34)c(F)c2)c1 [Example 7]
H460 IC50 [1]: 0.0012 µg/mL | MKN-45 IC50 [2]: 0.0021 µg/mL | MDA-MB-231 IC50 [3]: 0.011 µg/mL | U87MG IC50 [4]: 0.10 µg/mL | HT-29 IC50 [5]: 0.0006 µg/mL | SMMC-7721 IC50 [6]: 0.13 µg/mL

COc1cc2c(Oc3ccc(NC(=O)N/N=C/c4ccc(F)cc4)cc3F)ccnc2cc1OCCCN1CCC(C)CC1 [Example 10, (E)-N^1-(3-fluoro-4-(6-methoxy-7-(3-(4-methylpiperidin-1-yl)propoxy)quinoline-4-lyoxy)phenyl)-N^4-(4-fluorobenzaldehyde)semicarbazone]
H460 IC50 [1]: 0.0092 µg/mL | MKN-45 IC50 [2]: 0.038 µg/mL | MDA-MB-231 IC50 [3]: 0.011 µg/mL | U87MG IC50 [4]: 0.019 µg/mL | HT-29 IC50 [5]: 0.0015 µg/mL | SMMC-7721 IC50 [6]: 0.16 µg/mL

COc1cc2c(Oc3ccc(NC(=O)NN=Cc4ccc(F)cc4Cl)cc3F)ccnc2cc1OCCCN1CCOCC1 [Example 14, (E)-N^1-(3-fluoro-4-(6-methoxy-7-(3-(morpholin-4-yl)propoxy)quinoline-4-yloxy)phenyl)-N^4-(2-chloro-4-fluorobenzaldehyde)semicarbazone]
H460 IC50 [1]: 1.2 µg/mL | MKN-45 IC50 [2]: 0.65 µg/mL | MDA-MB-231 IC50 [3]: 0.90 µg/mL | U87MG IC50 [4]: 1.4 µg/mL | HT-29 IC50 [5]: 0.81 µg/mL | SMMC-7721 IC50 [6]: 1.5 µg/mL

COc1cc2c(Oc3ccc(NC(=O)N/N=C(\C)c4ccccc4)cc3F)ccnc2cc1OCCCN1CCCCC1 [Example 17, (E)-N^1-(3-fluoro-4-(6-methoxy-7-(3-(piperidin-1-yl)propoxy)quinoline-4-yloxy)phenyl)-N^4-(acetophenone)semicarbazone]
H460 IC50 [1]: 0.069 µg/mL | MKN-45 IC50 [2]: 0.072 µg/mL | MDA-MB-231 IC50 [3]: 0.071 µg/mL | U87MG IC50 [4]: 0.24 µg/mL | HT-29 IC50 [5]: 0.0057 µg/mL | SMMC-7721 IC50 [6]: 0.13 µg/mL

COc1cc2c(Oc3ccc(NC(=O)N/N=C/c4ccc(Cl)cc4Cl)cc3F)ccnc2cc1OCCCN1CCCC1 [Example 19, (E)-N^1-(3-fluoro-4-(6-methoxy-7-(3-(pyrrolidin-1-yl)propox)quinoline-4-yloxy)phenyl)-N^4-(2,4-dichlorobenzaldehyde)semicarbozone]
H460 IC50 [1]: 0.96 µg/mL | MKN-45 IC50 [2]: 0.71 µg/mL | MDA-MB-231 IC50 [3]: 1.2 µg/mL | U87MG IC50 [4]: 1.9 µg/mL | HT-29 IC50 [5]: 1.4 µg/mL | SMMC-7721 IC50 [6]: 0.97 µg/mL

COc1cc2c(Oc3ccc(NC(=O)NN=Cc4ccc(Cl)cc4Cl)cc3F)ccnc2cc1OCCCN1CCOCC1 [Example 20, (E)-N^1-(3-fluoro-4-(6-methoxy-7-(3-(morpholin-4-yl)propoxy)quinoline-4-yloxy)phenyl)-N^4-(2,4-dichlorobenzaldehyde)semicarbazone]
H460 IC50 [1]: 1.1 µg/mL | MKN-45 IC50 [2]: 1.5 µg/mL | MDA-MB-231 IC50 [3]: 1.7 µg/mL | U87MG IC50 [4]: 4.2 µg/mL | HT-29 IC50 [5]: 0.84 µg/mL | SMMC-7721 IC50 [6]: 6.7 µg/mL

COc1cc2c(Oc3ccc(N(/N=C/c4c(O)ccc5ccccc45)C(N)=O)cc3F)ccnc2cc1OCCCN1CCC(C)CC1 [Example 21, (E)-N^1-(3-fluoro-4-(6-methoxy-7-(3-(4-methylpiperidin-1-yl)propoxy)quinoline-4-yloxy)phenyl)-N^4-(2-hydroxy-1-naphthaldehyde)semicarbazone]
IC50 [1]: 0.16 µg/mL (≈ 0.245 µM) | IC50 [2]: 0.1 µg/mL (≈ 0.153 µM) | IC50 [3]: 0.087 µg/mL (≈ 0.133 µM) | IC50 [4]: 0.89 µg/mL (≈ 1.37 µM) | IC50 [5]: 0.065 µg/mL (≈ 0.0997 µM) | IC50 [6]: 0.98 µg/mL (≈ 1.5 µM)

COc1cc2c(Oc3ccc(NC(=O)N/N=C/c4ccc(F)c(F)c4)cc3F)ccnc2cc1OCCCN1CCCC1 [Example 22, (E)-N^1-(3-fluoro-4-(6-methoxy-7-(3-(pyrrolidin-1-yl)propoxy)quinoline-4-lyoxy)phenyl)-N^4-(3,4-difluorobenzaldehyde)semicarbazone]
H460 IC50 [1]: 0.29 µg/mL | MKN-45 IC50 [2]: 0.37 µg/mL | MDA-MB-231 IC50 [3]: 0.31 µg/mL | U87MG IC50 [4]: 0.66 µg/mL | HT-29 IC50 [5]: 0.19 µg/mL | SMMC-7721 IC50 [6]: 1.2 µg/mL

COc1cc2c(Oc3ccc(N(/N=C/c4cc(C)c(O)c(C)c4)C(N)=O)cc3F)ccnc2cc1OCCCN1CCOCC1 [Example 27, (E)-N^1-(3-fluoro-4-(6-methoxy-7-(3-(morpholin-4-yl)propoxy)quinoline-4-yloxy)phenyl)-N^4-(3,5-dimethyl-4-hydroxybenzaldehyde)semicarbazone]
IC50 [1]: 1.3 µg/mL (≈ 2.1 µM) | IC50 [2]: 0.2 µg/mL (≈ 0.324 µM) | IC50 [3]: 0.96 µg/mL (≈ 1.55 µM) | IC50 [4]: 1.4 µg/mL (≈ 2.27 µM) | IC50 [5]: 0.59 µg/mL (≈ 0.955 µM) | IC50 [6]: 0.53 µg/mL (≈ 0.858 µM)

CCC(=NNC(=O)Nc1ccc(Oc2ccnc3cc(OCCCN4CCCCC4)c(OC)cc23)c(F)c1)c1ccccc1 [Example 30, (E)-N^1-(3-fluoro-4-(6-methoxy-7-(3-(piperidin-1-yl)propoxy)quinoline-4-yloxy)phenyl)-N^4-(propiophenone)thiosemicarbazone]
H460 IC50 [1]: 0.0012 µg/mL | MKN-45 IC50 [2]: 0.0020 µg/mL | MDA-MB-231 IC50 [3]: 0.0021 µg/mL | U87MG IC50 [4]: 0.051 µg/mL | SMMC-7721 IC50 [6]: 0.44 µg/mL

COc1cc2c(Oc3ccc(NC(=S)NN=Cc4ccc(Cl)cc4Cl)cc3F)ccnc2cc1OCCCN1CCN(C)CC1 [Example 40, (E)-N^1-(3-fluoro-4-(6-methoxy-7-(3-(4-methyl-1-piperazinyl)propoxy)quinoline-4-yloxy)phenyl)-N^4-(2,4-dichlorobenzaldehyde)thiosemicarbazone]
H460 IC50 [1]: 2.8 µg/mL | MKN-45 IC50 [2]: 1.5 µg/mL | MDA-MB-231 IC50 [3]: 1.9 µg/mL | HT-29 IC50 [5]: 1.9 µg/mL | SMMC-7721 IC50 [6]: 3.1 µg/mL

COc1cc2c(Oc3ccc(NC(=S)NN=Cc4ccc(F)cc4Cl)cc3F)ccnc2cc1OCCCN1CCN(C)CC1 [Example 42, (E)-N^1-(3-fluoro-4-(6-methoxy-7-(3-(4-methyl-1-piperazinyl)propoxy)quinoline-4-yloxy)phenyl)-N^4-(2-chloro-4-fluorobenzaldehyde)thiosemicarbazone]
H460 IC50 [1]: 0.38 µg/mL | MKN-45 IC50 [2]: 0.34 µg/mL | MDA-MB-231 IC50 [3]: 0.29 µg/mL | U87MG IC50 [4]: 1.0 µg/mL | SMMC-7721 IC50 [6]: 0.96 µg/mL

(E)-N^1-(3-fluoro-4-(6-methoxy-7-(3-(morpholin-4-yl)propoxy)quinoline-4-oxy)phenyl)-N^4-(3,4-difluorobenzaldehyde)semicarbazone [Example 23]
H460 IC50 [1]: 3.6 µg/mL | MKN-45 IC50 [2]: 5.7 µg/mL | MDA-MB-231 IC50 [3]: 2.9 µg/mL | U87MG IC50 [4]: 5.6 µg/mL | SMMC-7721 IC50 [6]: 5.9 µg/mL

(E)-N^1-(3-fluoro-4-(6-methoxy-7-(3-(piperidin-1-yl)propoxy)quinoline-4-yloxy)phenyl)-N^4-(2-chloro-4-fluorobenzaldehyde)thiosemicarbazone [Example 43]
H460 IC50 [1]: 0.0067 µg/mL | MDA-MB-231 IC50 [3]: 0.0029 µg/mL | U87MG IC50 [4]: 0.092 µg/mL | HT-29 IC50 [5]: 0.0031 µg/mL | SMMC-7721 IC50 [6]: 0.069 µg/mL
